Laboratory results taken from ChEMBL document CHEMBL3137667, “[Drug-induced liver injury; fourteenth updated edition of the bibliographic database of liver injuries and related drugs]” (Gastroenterol Clin Biol, 2004).

Columns and labels:
[1] = human
[2] = human, serum
[3] = human; remark: listed apart in the source
[4] = Highest frequency of moderate liver toxicity observed during clinical trials, expressed as a percentage. [column '% BIOL' in source]; conditions: human
[5] = human; remark: listed apart in the source
[6] = human; remark: listed apart in the source
[7] = human; remark: listed apart in the source
[8] = human; remark: listed apart in the source
[9] = human; remark: listed apart in the source
[10] = human; remark: listed apart in the source
[11] = human; remark: listed apart in the source
[12] = Times to onset, minimal and maximal, observed in the indexed observations. [column 'DELAI' in source]; conditions: human
[13] = human, serum, 4383 h
[14] = Comments (NB not yet translated). [column 'COMMENTAIRES' in source]; conditions: human
[15] = human, serum; remark: listed apart in the source
[16] = Highest frequency of acute liver toxicity observed during clinical trials, expressed as a percentage. [column '% AIGUE' in source]; conditions: human
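Wherever Hepatotoxicity (association with vascular disease) is given: count of indexed literature references reporting vascular liver injury in humans, e.g. peliosis hepatitis, hepatic veno-occlusive disease or Budd-Chiari syndrome.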
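Wherever Hepatotoxicity (benign tumour) is given: value is a count of indexed literature references citing a benign tumour confirmed by histopathology.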
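Wherever Hepatotoxicity (choleostasis) is given: human cholestatic liver injury, shown by histopathology or by peak ALT or AST elevation over alkaline phosphatase ratio below 2, value counts indexed literature reports.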
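Wherever Hepatotoxicity (chronic liver disease) is given: chronic liver injury confirmed by histopathology or persistently raised serum aminotransferase activity beyond 6 months, value given as the count of indexed literature references.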
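Wherever Hepatotoxicity (cirrhosis) is given: value is a count of indexed literature references reporting cirrhosis confirmed by histopathology.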
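Wherever Hepatotoxicity (cytolytic) is given: human cytolytic liver injury, shown by histopathology or by a ratio above 5 of peak ALT or AST elevation to alkaline phosphatase elevation, value counts indexed references.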
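Wherever Hepatotoxicity (granulomatous hepatitis) is given: value is a count of indexed literature references reporting granulomatous liver disease confirmed by histopathology.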
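Wherever Hepatotoxicity (malignant tumour) is given: malignant tumour confirmed by histopathology, value gives the count of indexed literature references reporting it.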
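Wherever Hepatotoxicity (severe hepatitis) is given: human clinical data: severe hepatitis, meaning potentially life-threatening liver failure or clinically observed cases, the value counts how many indexed literature references report it.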
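Wherever Hepatotoxicity (steatosis) is given: steatosis confirmed by histopathology, value is the count of indexed references.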

SMILES: CC(C)(Oc1ccc(C2CC2(Cl)Cl)cc1)C(=O)O (stereo not given) [CIPROFIBRATE]
- Hepatotoxicity (steatosis) [1]: 0
- Hepatotoxicity (moderate) [2]: 7
- Hepatotoxicity (granulomatous hepatitis) [3]: 0
- Hepatotoxicity (moderate) [4]: 7.7%
- Hepatotoxicity (benign tumour) [5]: 0
- Hepatotoxicity (malignant tumour) [6]: 0
- Hepatotoxicity (cirrhosis) [7]: 1
- Hepatotoxicity (cytolytic) [8]: 2
- Hepatotoxicity (association with vascular disease) [9]: 0
- Hepatotoxicity (choleostasis) [10]: 1
- Hepatotoxicity (severe hepatitis) [11]: 1
- Hepatotoxicity (time to onset) [12]: 24 days - 15 months
- Hepatotoxicity (chronic liver disease) [13]: 1
- Hepatotoxicity (comment) [14]: AC_ANTI-N
- Hepatotoxicity (acute) [15]: 3
- Hepatotoxicity (acute) [16]: 0%

SMILES: O=C(O)C1N=C(c2ccccc2)c2cc(Cl)ccc2NC1=O (stereo not given) [CLORAZEPIC ACID]
- Hepatotoxicity (steatosis) [1]: 0
- Hepatotoxicity (moderate) [2]: 0
- Hepatotoxicity (granulomatous hepatitis) [3]: 0
- Hepatotoxicity (moderate) [4]: 0%
- Hepatotoxicity (benign tumour) [5]: 0
- Hepatotoxicity (malignant tumour) [6]: 0
- Hepatotoxicity (cirrhosis) [7]: 0
- Hepatotoxicity (cytolytic) [8]: 2
- Hepatotoxicity (association with vascular disease) [9]: 0
- Hepatotoxicity (choleostasis) [10]: 3
- Hepatotoxicity (severe hepatitis) [11]: 0
- Hepatotoxicity (time to onset) [12]: 2 months - 3 months
- Hepatotoxicity (chronic liver disease) [13]: 0
- Hepatotoxicity (comment) [14]: CHOLESTASE_PROLONGEE
- Hepatotoxicity (acute) [15]: 3
- Hepatotoxicity (acute) [16]: 0%

SMILES: O=C(O)c1cc(=O)c2c(OCC(O)COc3cccc4oc(C(=O)O)cc(=O)c34)cccc2o1 [CROMOLYN]
- Hepatotoxicity (steatosis) [1]: 0
- Hepatotoxicity (moderate) [2]: 1
- Hepatotoxicity (granulomatous hepatitis) [3]: 1
- Hepatotoxicity (moderate) [4]: 16.7%
- Hepatotoxicity (benign tumour) [5]: 0
- Hepatotoxicity (malignant tumour) [6]: 0
- Hepatotoxicity (cirrhosis) [7]: 1
- Hepatotoxicity (cytolytic) [8]: 0
- Hepatotoxicity (association with vascular disease) [9]: 0
- Hepatotoxicity (choleostasis) [10]: 0
- Hepatotoxicity (severe hepatitis) [11]: 0
- Hepatotoxicity (time to onset) [12]: 4 months - 10 months
- Hepatotoxicity (chronic liver disease) [13]: 0
- Hepatotoxicity (comment) [14]: #CBP
- Hepatotoxicity (acute) [15]: 0
- Hepatotoxicity (acute) [16]: 0%

SMILES: CC(CN(C)C)CN1c2ccccc2Sc2ccc(C#N)cc21 (stereo not given) [CYAMEMAZINE]
- Hepatotoxicity (steatosis) [1]: 0
- Hepatotoxicity (moderate) [2]: 0
- Hepatotoxicity (granulomatous hepatitis) [3]: 1
- Hepatotoxicity (moderate) [4]: 0%
- Hepatotoxicity (benign tumour) [5]: 0
- Hepatotoxicity (malignant tumour) [6]: 0
- Hepatotoxicity (cirrhosis) [7]: 0
- Hepatotoxicity (cytolytic) [8]: 1
- Hepatotoxicity (association with vascular disease) [9]: 0
- Hepatotoxicity (choleostasis) [10]: 3
- Hepatotoxicity (severe hepatitis) [11]: 1
- Hepatotoxicity (time to onset) [12]: 2 days - 7 weeks
- Hepatotoxicity (chronic liver disease) [13]: 0
- Hepatotoxicity (comment) [14]: CHOLANGITE #CIRROSE_BILIAIRE RC/DESIPRAMINE/TRIMIPRAMINE
- Hepatotoxicity (acute) [15]: 4
- Hepatotoxicity (acute) [16]: 0%

SMILES: C[C@@H]1C[C@H]2[C@@H]3CCC4=CC(=O)C=C[C@]4(C)[C@@]3(F)[C@@H](O)C[C@]2(C)[C@@]1(O)C(=O)CO [DEXAMETHASONE]
- Hepatotoxicity (steatosis) [1]: 0
- Hepatotoxicity (moderate) [2]: 2
- Hepatotoxicity (granulomatous hepatitis) [3]: 0
- Hepatotoxicity (moderate) [4]: 24%
- Hepatotoxicity (benign tumour) [5]: 0
- Hepatotoxicity (malignant tumour) [6]: 0
- Hepatotoxicity (cirrhosis) [7]: 0
- Hepatotoxicity (cytolytic) [8]: 0
- Hepatotoxicity (association with vascular disease) [9]: 0
- Hepatotoxicity (choleostasis) [10]: 0
- Hepatotoxicity (severe hepatitis) [11]: 0
- Hepatotoxicity (time to onset) [12]: 8 days - 18 days
- Hepatotoxicity (chronic liver disease) [13]: 0
- Hepatotoxicity (comment) [14]: HEPATOMEGALIE
- Hepatotoxicity (acute) [15]: 0
- Hepatotoxicity (acute) [16]: 0%
